Experimental data taken from patent US7820196B2, “Physiologically active agents containing vicinal dithioglycols and use thereof in various branches of economy” (priority 1999, dated 2010).

System: broiler chickens
Assay: Example 6: effect of unithiol on productivity and meat quality of broiler chickens
Assay type: in vivo
Set-up: average daily gain: unit not given here
Method: An experiment was conducted, on the inventors' initiative, on the experimental base of the All-Russia research and technological institute for aviculture (VNITIP) during which a study was given to the following tasks: • determination of an effect produced by unithiol (DMPS) on the productivity and meat quality of broiler chickens; • effect produced by unithiol on the accumulation of heavy metal compounds (mercury, cadmium, lead) in various tissues of poultry.
The experiment was carried out in a vivarium on broiler chickens of one cross. Poultry was grown in cell batteries from one day to six-week age. The operating parameters and feeding level met the recommendation VNITIP 1999. The experiment was conducted according to the diagram on Table 1.
The poultry population: 1 and 2 groups, 35 heads each; 3,4,5 groups—6 heads each.
1. Chicks' individual live weight; weighing at the age of one day, 2-, 4-, 6 weeks.
2. Average daily live weight increase of the broilers over a 6-week period.
3. Safety of the poultry population, the daily record keeping of the broilers lost, with the causes of murrain established.
4. Feathering conditions, individual evaluation.
5. Feed consumption over a period of growing by way of the daily record keeping and weighing of specifies feed for each and every group, as calculated per head and per kg of live weight increase.
6. Dressed small carcass mass, individually weighing in slaughtering at the age of 6 weeks.
7. Dressed yield of meat as calculated.
8. Classification of small carcasses according to GOST 25391-82.
9. Meat qualities by way of anatomically dressing the small carcasses of broilers.
10. Chemical meat composition on terms of a dry substance.
12. Fatty acid meat composition.

[1] = Group 4: BR + heavy metals + 17 mg unithiol/kg feed, both days 15-42
[2] = Group 5: BR + heavy metals days 15-35, 34 mg unithiol/kg feed days 36-42
[3] = age 4 weeks, Group 2: BR + 17 mg unithiol/kg feed days 15-42
[4] = age 4 weeks, Group 4: BR + heavy metals + 17 mg unithiol/kg feed, both days 15-42
[5] = age 6 weeks, Group 2: BR + 17 mg unithiol/kg feed days 15-42
[6] = age 6 weeks, Group 4: BR + heavy metals + 17 mg unithiol/kg feed, both days 15-42
[7] = age 6 weeks, Group 5: BR + heavy metals days 15-35, 34 mg unithiol/kg feed days 36-42

With `O=S(=O)([O-])CC(S)CS.[Na+]` (stereo not drawn) [Unithiol, Sodium 2,3-Dimercaptopropane sulfonate] the “Meat category 1” value [1] was 66.7%, the “Meat category 2” value [1] was 33.3% and the Meat yield [1] was 67.6%. The “chemical meat composition: Ash” value [1] was 1.07%, the “chemical meat composition: Dry substance” value [1] was 25.71% and the “chemical meat composition: Fat” value [1] was 2.72%. The “chemical meat composition: Protein” value [1] was 21.92%, the “chemical meat composition: Water” value [1] was 73.0% and the “fatty acid meat composition: Fatty acids (total)” value [1] was 26.96 mg per 100 gr of product. The “fatty acid meat composition: Heptadecanoic” value [1] was 0.41 mg per 100 gr of product, the “fatty acid meat composition: Heptadecynoic” value [1] was 0.11 mg per 100 gr of product and the “fatty acid meat composition: Isomyristic” value [1] was 0.06 mg per 100 gr of product. The “fatty acid meat composition: Isopentadecanoic” value [1] was 0.03 mg per 100 gr of product, the “fatty acid meat composition: Linoleic” value [1] was 6.30 mg per 100 gr of product and the “fatty acid meat composition: Linolenic” value [1] was 0.25 mg per 100 gr of product. For the same compound, the “fatty acid meat composition: Myristic” value [1] was 0.15 mg per 100 gr of product, the “fatty acid meat composition: Oleic” value [1] was 8.39 mg per 100 gr of product and the “fatty acid meat composition: Palmitic” value [1] was 6.13 mg per 100 gr of product. The “fatty acid meat composition: Palmitoleic” value [1] was 1.71 mg per 100 gr of product, the “fatty acid meat composition: Pentadecanoic” value [1] was 0.05 mg per 100 gr of product and the “fatty acid meat composition: Polyunsaturated” value [1] was 6.55 mg per 100 gr of product. For the same compound, the “fatty acid meat composition: Saturated and monounsaturated” value [1] was 20.41 mg per 100 gr of product, the “fatty acid meat composition: Stearic” value [1] was 3.37 mg per 100 gr of product and the “Dressed carcasses, weight” value [2] was 1215 gr. For the same compound, the “Feed consumption per head” value [2] was 3780 gr, the “Feed consumption per kg of gain in live weight” value [2] was 2.17 kg and the “Meat category 1” value [2] was 60.0%. For the same compound, the “Meat category 2” value [2] was 40.0%, the Meat yield [2] was 68.3% and the “chemical meat composition: Ash” value [2] was 1.14%. The “chemical meat composition: Dry substance” value [2] was 25.18%, the “chemical meat composition: Fat” value [2] was 2.52% and the “chemical meat composition: Protein” value [2] was 21.52%. The “chemical meat composition: Water” value [2] was 73.28%, the “fatty acid meat composition: Fatty acids (total)” value [2] was 26.71 mg per 100 gr of product and the “fatty acid meat composition: Heptadecanoic” value [2] was 0.14 mg per 100 gr of product. For the same compound, the “fatty acid meat composition: Heptadecynoic” value [2] was 0.08 mg per 100 gr of product, the “fatty acid meat composition: Isomyristic” value [2] was 0.06 mg per 100 gr of product and the “fatty acid meat composition: Isopentadecanoic” value [2] was 0.06 mg per 100 gr of product. The “fatty acid meat composition: Linoleic” value [2] was 6.54 mg per 100 gr of product, the “fatty acid meat composition: Linolenic” value [2] was 0.18 mg per 100 gr of product and the “fatty acid meat composition: Myristic” value [2] was 1.29 mg per 100 gr of product. For the same compound, the “fatty acid meat composition: Oleic” value [2] was 7.40 mg per 100 gr of product, the “fatty acid meat composition: Palmitic” value [2] was 5.73 mg per 100 gr of product and the “fatty acid meat composition: Palmitoleic” value [2] was 1.59 mg per 100 gr of product. The “fatty acid meat composition: Pentadecanoic” value [2] was 0.07 mg per 100 gr of product, the “fatty acid meat composition: Polyunsaturated” value [2] was 6.72 mg per 100 gr of product and the “fatty acid meat composition: Saturated and monounsaturated” value [2] was 19.99 mg per 100 gr of product. The “fatty acid meat composition: Stearic” value [2] was 3.57 mg per 100 gr of product, the average daily gain (age 1-6 weeks, Group 2: BR + 17 mg unithiol/kg feed days 15-42) was 44.0 and the average daily gain (age 1-6 weeks, Group 4: BR + heavy metals + 17 mg unithiol/kg feed, both days 15-42) was 41.8. For the same compound, the average daily gain (age 1-6 weeks, Group 5: BR + heavy metals days 15-35, 34 mg unithiol/kg feed days 36-42) was 41.4, the average daily gain (age 2-4 weeks, Group 2: BR + 17 mg unithiol/kg feed days 15-42) was 47.1 and the average daily gain (age 2-4 weeks, Group 4: BR + heavy metals + 17 mg unithiol/kg feed, both days 15-42) was 42.7. The average daily gain (age 4-6 weeks, Group 2: BR + 17 mg unithiol/kg feed days 15-42) was 64.1, the average daily gain (age 4-6 weeks, Group 4: BR + heavy metals + 17 mg unithiol/kg feed, both days 15-42) was 62.1 and the average daily gain (age 4-6 weeks, Group 5: BR + heavy metals days 15-35, 34 mg unithiol/kg feed days 36-42) was 64.2. The live weight [3] was 993.4 grams, the “safety of the poultry population” value [3] was 100% and the live weight [4] was 930.0 grams. For the same compound, the “safety of the poultry population” value [4] was 100%, the live weight [5] was 1890.5 grams and the “safety of the poultry population” value [5] was 100%. For the same compound, the live weight [6] was 1880.0 grams, the “safety of the poultry population” value [6] was 100% and the live weight [7] was 1780.0 grams. For the same compound, the “safety of the poultry population” value [7] was 83.3%, the “dressed yield of meat and fatness” value (application of unithiol) was “highest level of the dressed yield of meat and also good fatness” and the “chemical and fatty acid meat composition” value (unithiol in the composition of feed) was “increased polyunsaturated fatty acid content in chicken meat”.
